According to patent US4243681A, “Alkylthiophenoxypropanolamines and pharmaceutical compositions and uses thereof” (priority 1979, dated 1981):

How the values were obtained:
adrenergic beta-receptor = molecular target: T1, adrenergic beta-receptor (Cavia porcellus, UniProt Q8K4Z4); assay: Beta-adrenergic blocking activity in the isolated guinea pig trachea (isoproterenol); type: cell-based; details: potency relative to propanol (equals one); isoproterenol 0.1 mcg./ml.
T1 construct: Tracheas excised from adult guinea pigs; from tissue; host or cells: guinea pig trachea (spirally cut segments)
Procedure: Test Method. […] The lower end of a tracheal segment is fixed to a stationary glass rod and the upper end is threaded to an isometric tension transducer. Changes in the spontaneous tonus of the tracheal smooth muscle are monitored via the transducer and recorded continuously on an electronic recorder. Adrenergic beta-receptor blocking activity is determined by the ability of a test agent to inhibit the response of the isolated tissue to the adrenergic beta-stimulant "isoproterenol" at a concentration of 0.1 mcg./ml. bath fluid. The tissues are exposed to the test agent solution for a 15-min. interval prior to the addition of isoproterenol to the bath fluid. Beta-receptor blocking potency of a test drug is ascertained from concentration-response relationships wherein the response is expressed as a percent inhibition of isoproterenol-induced tissue response. […] Each drug solution is added to the tissue bathing medium at a constant volume of 0.2 ml./ml. of bath fluid and only one test drug concentration is employed for an individual tissue segment. Potency of the test agent relative to that of the beta-adrenergic blocking agent "propanolol" as a reference standard is assessed by comparing the IC50 values.

perfused dog hind limb = assay: Peripheral vasodilator activity, perfused dog hind limb (anesthetized dog); type: in vivo
Procedure: Test Method. Mongrol dogs of either sex weighing between 11 and 16 kg., each, were anesthetized with pentobarbital (30 mg./kg.) administered intravenously. The left brachial vein was cannulated and pentobarbital infused continuously throughout the experiment at a rate of 5 mg./kg./hr. A tracheotomy was performed and dogs ventilated mechanically with room air at a rate of 18 strokes/min. and a volume equivalent to 20 ml./kg. The vagi were sectioned bilaterally in the mid-cervical region of the neck. The right brachial vein and artery were cannulated to inject drugs and to monitor blood pressure via a Statham pressure transducer, respectively. All measurements were recorded on a Beckman-Offner dynograph. The abdominal aorta was exposed through midline incision and a loose ligature placed around the aorta distal to the left renal artery. The right (donor) and left (recipient) femoral arteries were exposed for cannulation and subsequent hind-limb perfursion. Following intravenous administration of heparin (5 mg/kg.) and gallamine triethiodide (2 mg./kg.), the right femoral artery was cannulated and the tip of the catheter advanced into the abdominal aorta to the level of the renal arteries. The left femoral artery was cannulated and the hind-limb perfused using a Harvard Perfusion pump. The ligature previously placed around the aorta was subsequently tied to minimize collateral circulation. […] Perfusion pressure, measured at a point distal to the perfusion pump was set equal to 150 mm Hg. by adjusting pump speed. Blood flow to the limb was determined volumetrically at the conclusion of the experiment. The test agent was administered by infusion at a rate of from 0.1-1.0 mg./min. for a six-minute period and maximum reduction in pressure determined. One to three animals were employed per test agent. […] This protocol precludes effects resulting from animal variation thus permitting a direct side-by-side comparison of vasodilating activity.

mesenteric arteries [1] = assay: Basal tone of mesenteric arteries of dogs; set-up: species or system dog
Source text: (§1) (b) The compound of Example 2 elevated basal tone of mesenteric arteries of dogs and rabbits. This effect is considered valuable in the treatment of peripheral and cerebral vascular diseases.

mesenteric arteries [2] = assay: Basal tone of mesenteric arteries of rabbits; set-up: species or system rabbit
Source text: as §1

rabbit thoracic aorta = assay: Isolated rabbit thoracic aorta, antispasmodic activity vs. potassium chloride; type: cell-based, rabbit (New Zealand White); details: potency relative to papaverine (equals one), from pA2 vs. potassium chloride
Procedure: Test Method. Antispasmodic activity was assessed in vitro by determining the effect of the test substance on induced contraction of arterial smooth muscle as follows. Adult, male, New Zealand White rabbits (body weight 2.5-4 kg.) were used. Each rabbit was killed by i.v. air injection. The thorax was opened and the descending thoracic aorta removed and placed in Kreb's-bicarbonate solution. Extraneous tissue was removed and the aorta was cut spirally along its entire length. Four spiral segments, each approximately 2 cm. in length (unstretched), were obtained from each thoracic aorta. […] The bath medium surrounding the aortic spiral (Kreb's-bicarbonate solution) was maintained at 37.5°C. and constantly aerated with 95% O2 :5% CO2. Activity of the aortic smooth muscle was recorded on an electronic polygraph via its connection to the tension transducer. After an equilibration period of 60 min., a cumulative dose-response curve was obtained to an agonist (e.g. potassium chloride or norepinephrine) and the tissue then washed. Seventy-five min. later, a second cumulative dose-response curve to the agonist was obtained and the tissue washed again. Sixty min. later, a test drug solution was added to the tissue bath fluid and, after 15 min., drug exposure and, without washing, a third and final agonist-response curve was obtained. All additions to the bath fluid were 0.1 ml. volumes of aqueous solutions.

guinea pig skin = assay: Local anesthetic activity, intradermal infiltration of guinea pig skin; type: in vivo
platelet survival = assay: Platelet survival time in rats with intra-arterial catheters; type: in vivo, rat
Source text: (a) Rats with intra-arterial catheters have periods of shortened platelet survival time. This shortened survival time is normalized with the compound of Example 2.

[3] = system: human platelet-rich plasma; assay: Inhibition of platelet aggregation in vitro (ADP or collagen induced; antithrombogenic activity); type: cell-based
Procedure: Test Method. A method similar to that described in Born, Nature 194, 927 (1962) and O'Brien, J. Clinical Pathology 15, 446 (1962). This test comprises a nephelometric method in which the change in turbidity of a specimen of human platelet-rich plasma is measured on causation of platelet aggregation by addition of adenosine diphosphate (ADP) or collagen as the thrombogenic inducing agent. An increase in transmittance light occurs when the thrombogenic agent is added to the specimen of platelet-rich plasm due to clumping of platelets. Efficacy of the test compound is determined by ability to prevent the clumping and concommitant increase in transmittance. Various concentrations of the test agent are tested and that concentration causing a 50% reduction in the thrombogenic response is determined from a concentration-response curve.

red blood cell = assay: Red blood cell rigidity via chromium^51 labeling technique; type: cell-based
rabbit eye = assay: Local anesthetic activity, topical application to the rabbit eye; type: in vivo
[4] = 0.3 mg./min., side-by-side comparison

T1 sequence (Q8K4Z4 whole entry): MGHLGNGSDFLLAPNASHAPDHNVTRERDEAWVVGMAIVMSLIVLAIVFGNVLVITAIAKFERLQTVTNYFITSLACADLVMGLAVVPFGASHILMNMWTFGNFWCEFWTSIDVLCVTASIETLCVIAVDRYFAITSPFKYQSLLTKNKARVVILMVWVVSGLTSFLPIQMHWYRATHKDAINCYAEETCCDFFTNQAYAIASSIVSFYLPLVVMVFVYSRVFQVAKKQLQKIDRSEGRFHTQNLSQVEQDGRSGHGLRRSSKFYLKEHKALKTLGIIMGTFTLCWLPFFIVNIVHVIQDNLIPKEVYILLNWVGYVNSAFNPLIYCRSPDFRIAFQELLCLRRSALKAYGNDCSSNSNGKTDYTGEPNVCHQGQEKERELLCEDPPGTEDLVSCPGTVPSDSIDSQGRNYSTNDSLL

## CCCCCCCCNCC(O)COc1ccc(SC(C)C)cc1.Cl (stereo not drawn) [Example 2, 1-[4-[(1-Methylethyl)thio]phenoxy]-3-(octylamino)-2-propanol Hydrochloride]
Adrenergic beta-receptor
  Beta-Adrenergic Blocking Potency: < 0.001
Perfused dog hind limb; [4]
  vasodilator effect relative to test agent A: approximately 3.2 times
  vasodilator effect relative to test agent B: ~21 times
Perfused dog hind limb; infusion rate 0.3 mg./min.
  Pressure Decrease: -44 Millimeters of mercury
Perfused dog hind limb; infusion rate 0.3 mg./min., side-by-side comparison in same animals
  Pressure Decrease: -63 Millimeters of mercury
Perfused dog hind limb; infusion rate 1.0 mg./min.
  Pressure Decrease: -99 Millimeters of mercury
Mesenteric arteries [1]
  basal tone of mesenteric arteries: elevated
Mesenteric arteries [2]
  basal tone of mesenteric arteries: elevated
Rabbit thoracic aorta
  Antispasmodic Potency: 0.6
Guinea pig skin
  local anesthetic activity vs. lidocaine: as great as
Platelet survival
  shortened platelet survival time: normalized
[3]; aggregation induced by 1 mcg. ADP
  ED50 ADP (inhibition of platelet aggregation): 56 Microgram/0.5 ml. plateletrich human plasma
[3]; minimal amount of collagen producing maximal aggregation
  ED50 Coll (inhibition of platelet aggregation): 31 Microgram/0.5 ml. plateletrich human plasma
Red blood cell
  red blood cell rigidity: decreased
Rabbit eye
  local anesthetic activity vs. lidocaine: greater than
